# From ChEMBL document CHEMBL5506006, “Discovery of 2,9-diaryl-6-carbamoylpurines as a novel class of antitubercular agents” (Eur J Med Chem, 2024)
# Calls of active or inactive are those of the source. No cut-off for these calls is given here.
# Columns and labels:
# [1] = tested on: Mycobacterium tuberculosis; assay: Antituberculosis activity against Mycobacterium tuberculosis H37Rv; assay type: functional, organism-based
# [2] = Cytotoxicity against African green monkey Vero cells; assay type: toxicity, cell-based; settings: African green monkey (Chlorocebus sabaeus)
# [3] = Selectivity index, ratio of EC50 for african green monkey Vero cells to IC90 for Mycobacterium tuberculosis H37Rv; assay type: toxicity; settings: read-out: Selectivity Index
# [4] = tested on: Mycobacterium tuberculosis; assay: Antituberculosis activity against Mycobacterium tuberculosis H37Rv infected in macrophage assessed as reduction in bacterial load at 2 times IC90 incubated for 3 days; assay type: functional, organism-based; settings: time 3.0 day
# [5] = tested on: Mycobacterium tuberculosis; assay: Antituberculosis activity against Mycobacterium tuberculosis H37Rv infected in macrophage assessed as reduction in bacterial load at 10 times IC90 incubated for 3 days; assay type: functional, organism-based; settings: time 3.0 day
# BMDM = assay: Cytotoxicity against mouse BMDMs at 2 to 10 times MIC incubated for 24 hrs by MTS assay; assay type: toxicity, cell-based
# [6] = Biodistribution in C57BL/6 mouse liver at 25 mg/kg, po administered as single dose and measured after 2 hrs by HPLC based UV-Visble detector method; assay type: ADME, organism-based; settings: read-out: Drug uptake
# [7] = Biodistribution in C57BL/6 mouse liver at 25 mg/kg, po administered as single dose and measured after 6 hrs by HPLC based UV-Visble detector method; assay type: ADME, organism-based; settings: read-out: Drug uptake
# [8] = Biodistribution in C57BL/6 mouse liver at 25 mg/kg, po administered as single dose and measured after 24 hrs by HPLC based UV-Visble detector method; assay type: ADME, organism-based; settings: in vivo
# [9] = Biodistribution in C57BL/6 mouse lung at 25 mg/kg, po administered as single dose and measured after 24 hrs by HPLC based UV-Visble detector method; assay type: ADME, organism-based; settings: read-out: Drug uptake
# [10] = Biodistribution in C57BL/6 mouse lung at 25 mg/kg, po administered as single dose and measured after 48 hrs by HPLC based UV-Visble detector method; assay type: ADME, organism-based; settings: read-out: Drug uptake
# [11] = Biodistribution in C57BL/6 mouse blood at 25 mg/kg, po administered as single dose and measured after 2 hrs by HPLC based UV-Visble detector method; assay type: ADME, organism-based; settings: read-out: Drug uptake
# [12] = Biodistribution in C57BL/6 mouse blood at 25 mg/kg, po administered as single dose and measured after 6 hrs by HPLC based UV-Visble detector method; assay type: ADME, organism-based; settings: read-out: Drug uptake
# [13] = tested on: Mycobacterium tuberculosis; assay: Antimycobacterial activity against Mycobacterium tuberculosis H37Rv infected in C57BL/6 mouse assessed as reduction in liver bacterial burden at 25 mg/kg, po pre-infected for 24 hrs followed by compound addition for 6 days per week and measured on day 18; assay type: functional, organism-based; settings: time 18.0 day
# [14] = tested on: Mycobacterium tuberculosis; assay: Antimycobacterial activity against Mycobacterium tuberculosis H37Rv infected in C57BL/6 mouse assessed as reduction in lung bacterial burden at 25 mg/kg, po pre-infected for 24 hrs followed by compound addition for 6 days per week and measured on day 18 and 36; assay type: functional, organism-based; settings: time 18-36 day
Structure (SMILES),IC50 [1] [µg/mL],IC90 [1] [µg/mL],also measured
NC(=O)c1nc(-c2ccc(Oc3ccc(Cl)cc3)cc2)nc2c1ncn2-c1ccccc1,2.69,3.09,EC50 [2]: 12.7 µg/mL; selectivity ratio [3]: 4.11
COc1ccc(-n2cnc3c(C(N)=O)nc(-c4ccccc4O)nc32)cc1,> 100,> 100,–
COc1ccc(-n2cnc3c(C(N)=O)nc(-c4ccc(O)cc4)nc32)cc1,> 100,> 100,–
Cn1cnc2c(C(N)=O)nc(-c3ccccc3O)nc21,> 100,> 100,–
NC(=O)c1nc(-c2ccc(C(F)(F)F)cc2)nc2c1ncn2-c1ccccc1,> 100,> 100,–
NC(=O)c1nc(-c2cccc(O)c2)nc2c1ncn2-c1ccccc1,> 100,> 100,–
COc1ccc(-c2nc(C(N)=O)c3ncn(-c4ccccc4)c3n2)cc1,< 0.1,< 0.19,EC50 [2]: > 30 µg/mL; selectivity ratio [3]: > 154; Activity [4]: Active; Activity [5]: Active; Activity (BMDM): Non-Toxic; concentration at 2 h [6]: 4800 ng/g; concentration at 6 h [7]: 1460 ng/g; Drug uptake [8]: Not Active; concentration at 24 h [9]: 4030 ng/g; concentration at 48 h [10]: 1210 ng/g; concentration at 2 h [11]: 630 ng/g; concentration at 6 h [12]: 2160 ng/g; Activity [13]: Active; Activity [14]: Active
N#Cc1ccc(-n2cnc3c(C(N)=O)nc(-c4ccccc4O)nc32)cc1,> 100,> 100,–
COc1ccc(-n2cnc3c(C(N)=O)nc(-c4cccc(O)c4)nc32)cc1,> 100,> 100,–
NC(=O)c1nc(-c2ccc(OC(F)(F)F)cc2)nc2c1ncn2-c1ccccc1,> 100,> 100,–
CCOc1ccc(-c2nc(C(N)=O)c3ncn(-c4ccccc4)c3n2)cc1,1.44,1.65,EC50 [2]: 12.9 µg/mL; selectivity ratio [3]: 7.85
NC(=O)c1nc(-c2ccccc2O)nc2c1ncn2-c1ccccc1,> 100,> 100,–
NC(=O)c1nc(-c2ccc(N3CCOCC3)cc2)nc2c1ncn2-c1ccccc1,> 100,> 100,–
COc1ccc2cc(-c3nc(C(N)=O)c4ncn(-c5ccccc5)c4n3)ccc2c1,> 100,> 100,–
N#Cc1ccc(-n2cnc3c(C(N)=O)nc(-c4cccc(O)c4)nc32)cc1,38.5,> 100,–
CC(C)(C)Oc1ccc(-c2nc(C(N)=O)c3ncn(-c4ccccc4)c3n2)cc1,> 100,> 100,–
NC(=O)c1nc(-c2ccc(O)cc2)nc2c1ncn2-c1ccccc1,0.7,1.2,EC50 [2]: > 30 µg/mL; selectivity ratio [3]: > 25.5
N#Cc1ccc(-n2cnc3c(C(N)=O)nc(-c4ccc(O)cc4)nc32)cc1,> 100,> 100,–
COc1ccc(-c2nc(C(N)=O)c3ncn(-c4ccccc4)c3n2)c2ccccc12,> 100,> 100,–
Cn1cnc2c(C(N)=O)nc(-c3ccc(O)cc3)nc21,25.8,47.8,–
NC(=O)c1nc(-c2ccccc2O)nc2c1ncn2Cc1ccccc1,> 100,> 100,–
Cn1cnc2c(C(N)=O)nc(-c3cccc(O)c3)nc21,> 100,> 100,–
Cc1ccc(-n2cnc3c(C(N)=O)nc(-c4ccccc4O)nc32)cc1,> 100,> 100,–
Cc1ccc(-n2cnc3c(C(N)=O)nc(-c4cccc(O)c4)nc32)cc1,> 100,> 100,–
CCc1ccc(-c2nc(C(N)=O)c3ncn(-c4ccccc4)c3n2)cc1,> 100,> 100,–
CN(C)c1ccc(-c2nc(C(N)=O)c3ncn(-c4ccccc4)c3n2)cc1,1.38,1.67,EC50 [2]: > 40 µg/mL; selectivity ratio [3]: > 23.9
Cc1ccc(-n2cnc3c(C(N)=O)nc(-c4ccc(O)cc4)nc32)cc1,19.2,> 100,–
NC(=O)c1nc(-c2ccc(O)cc2)nc2c1ncn2Cc1ccccc1,> 100,> 100,–
